Assay type in all cases: cell-based
For assay [1], the system named is mouse ES cell-derived heart organoid. The assay is described as follows: Ca2+ measurement of drug responsiveness in heart organoids. To be noted: 1 μM isoproterenol vs absence (control); 15-second recording; Fluo8 fluorescence; FIG. 40. How it is done: The heart organoids were washed twice with PBS and immersed in a 4 μM green fluorescent intracellular calcium indicator Fluo8 AM (acetoxymethyl) or Fluo8 AM/F127, freshly diluted with Tyrode's solution containing 1.8 mM Ca^2+, at 37° C. for 15 to 30 minutes. Thereafter, the heart organoids were washed twice with PBS, treated with 200 μL of Tyrode's solution, mounted, and observed with a fluorescence microscope (manufactured by Keyence Corporation). Specifically, first, Ca^2+ measurement was performed by the method described above (Ca Measurement) in the presence and absence (control) of 1 μM isoproterenol, which is an adrenergic […] agonist. A 15-second recording (movie) was taken, and image analysis was performed to detect the change in the intensity (Y-axis) of the fluorescent signal with time (X-axis).

Assay [2] relates to mouse ES cell-derived embryoid bodies. The experiment in a line: Heart organoid formation from embryoid bodies on LN/ET gel in the presence of FGF protein. Conditions: bFGF instead of FGF4; not shown in the figure. How it is done:
For the purpose of attempting to mimic such a process of developing a heart in the living body, as shown in the lower stage of FIG. 1, first, mouse ES cells were cultured in a low-binding U-bottom 96-well plate in the absence of leukemia inhibitory factor (LIP) to obtain complete embryoid bodies (EB) (1000 to 5000 cells/embryoid body). […]

Assay [3] deals with human iPS cells (253G1) embryoid bodies. The assay is described as follows: Formation of heart and lung organoids from human iPS cells under conditions I to IV. Conditions: embryoid bodies on gelated LN/ET complex; at collection (day 13 of culture or later); FIG. 49.

In the case of `CC(C)NCC(O)c1ccc(O)c(O)c1` (stereo not drawn) [isoproterenol], the “change of Ca signal cycle in heart organoids” value in assay [1] is recorded as “shorten the Ca signal cycle (tachycardia-like)”. In the case of “bFGF: fibroblast growth factor 2 (FGF2, bFGF)”, the “production of beating heart organoid” value in assay [2] is “successfully produced the same beating heart organoid”.

B1: condition II: additive to medium: FGF4 (30 ng/mL) (protein, UniProt P08620 31-206, looked up)
Fibroblast growth factor 4: APTAPNGTLEAELERRWESLVALSLARLPVAAQPKEAAVQSGAGDYLLGIKRLRRLYCNVGIGFHLQALPDGRIGGAHADTRDSLLELSPVERGVVSIFGVASRFFVAMSSKGKLYGSPFFTDECTFKEILLPNNYNAYESYKYPGMFIALSKNGKTKKGNRVSPTMKVTHFLPRL
As for B1, the “efficiency of producing heart organoids and lung organoids (combined heart and lung, separated heart and lung)” value in assay [3] was 62.5%.
